In one data set the target is Estrogen receptor beta (Homo sapiens, UniProt Q92731).
For data set [1], the target named is T1, Estrogen receptor (Homo sapiens, UniProt P03372).
T1 sequence (P03372 whole entry): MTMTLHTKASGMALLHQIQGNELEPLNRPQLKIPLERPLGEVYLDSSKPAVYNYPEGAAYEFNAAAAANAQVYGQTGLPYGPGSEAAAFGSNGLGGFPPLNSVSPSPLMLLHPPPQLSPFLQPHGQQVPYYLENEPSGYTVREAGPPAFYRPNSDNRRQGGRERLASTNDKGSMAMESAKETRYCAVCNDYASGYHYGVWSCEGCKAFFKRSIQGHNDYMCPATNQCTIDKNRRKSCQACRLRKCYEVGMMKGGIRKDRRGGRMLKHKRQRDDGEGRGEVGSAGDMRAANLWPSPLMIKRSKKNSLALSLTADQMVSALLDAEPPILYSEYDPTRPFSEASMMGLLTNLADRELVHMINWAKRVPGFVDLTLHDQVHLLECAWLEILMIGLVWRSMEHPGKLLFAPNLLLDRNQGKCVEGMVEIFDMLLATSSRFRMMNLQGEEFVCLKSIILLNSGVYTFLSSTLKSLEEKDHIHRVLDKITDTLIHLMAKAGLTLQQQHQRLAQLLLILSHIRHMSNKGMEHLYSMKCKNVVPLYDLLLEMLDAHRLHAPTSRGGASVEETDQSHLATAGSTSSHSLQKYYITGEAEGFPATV
Description: Agonist activity at human ERalpha receptor expressed in HEK293T cells transfected with pGL4.27-(ERE)3-Luc assessed as transcriptional activation measured after 16 hrs by Dual-Glo luciferase assay

In data set [2] the target is T1, Estrogen receptor. Kind of data set: Agonist activity at human ERalpha receptor expressed in HEK293T cells transfected with pGL4.27-(ERE)3-Luc assessed as transcriptional activation at 10 uM measured after 16 hrs by Dual-Glo luciferase assay relative to 17beta-estradiol. It counts as cell-based.

pEC50: −log10 of the molar value.

The values that follow come from ChEMBL document CHEMBL4715775, “Synthesis and structure-activity relationships of 1-benzylindane derivatives as selective agonists for estrogen receptor beta” (Bioorg Med Chem, 2016).

Usually pEC50 stands for −log10 of the EC50, conventionally taken in molar units. A higher pEC50 goes with a small EC50.

Chain of Estrogen receptor beta (Q92731 whole entry): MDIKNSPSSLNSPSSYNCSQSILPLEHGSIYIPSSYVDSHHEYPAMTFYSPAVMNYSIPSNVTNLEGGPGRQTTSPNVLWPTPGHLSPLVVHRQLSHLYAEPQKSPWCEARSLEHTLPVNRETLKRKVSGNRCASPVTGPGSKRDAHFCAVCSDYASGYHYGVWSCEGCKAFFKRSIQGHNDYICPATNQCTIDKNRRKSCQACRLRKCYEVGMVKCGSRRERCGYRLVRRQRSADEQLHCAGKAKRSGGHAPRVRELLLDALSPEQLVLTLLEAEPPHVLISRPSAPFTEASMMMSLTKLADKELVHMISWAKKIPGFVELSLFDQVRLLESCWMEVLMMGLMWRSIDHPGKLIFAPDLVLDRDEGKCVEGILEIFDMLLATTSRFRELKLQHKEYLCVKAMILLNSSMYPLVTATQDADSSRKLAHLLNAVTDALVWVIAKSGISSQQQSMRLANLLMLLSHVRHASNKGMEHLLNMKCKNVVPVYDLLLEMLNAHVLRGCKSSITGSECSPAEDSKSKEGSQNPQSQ
Description for Estrogen receptor beta: Agonist activity at human ERbeta receptor expressed in HEK293T cells transfected with pGL4.27-(ERE)3-Luc assessed as transcriptional activation measured after 16 hrs by Dual-Glo luciferase assay

As to `CCC(c1ccc(O)cc1)C1CCc2cc(O)ccc21` (centres undefined), the pEC50 on Estrogen receptor beta is 10.00.

Take `Oc1cccc(CC2CCc3cc(O)ccc32)c1` (centres undefined): the results for the pEC50 on Estrogen receptor beta and at Estrogen receptor [1] were 7.49 and 5.51, respectively. In the case of `Cc1cc(O)ccc1CC1(C#N)CCc2cc(O)ccc21` (centres undefined), the pEC50 is 9.32 on Estrogen receptor beta and 6.02 at Estrogen receptor [1]. As to `Oc1ccc(CC2CCCc3cc(O)ccc32)cc1` (centres undefined), the pEC50 is 9.74 at Estrogen receptor beta and 6.99 at Estrogen receptor [1]. Turning to `N#CC1(Cc2ccc(O)cc2Cl)CCc2cc(O)ccc21` (centres undefined), on Estrogen receptor beta, the negative-log EC50 (pEC50) is 10.30. As to `CCC1(Cc2ccc(O)cc2)CCc2cc(O)ccc21` (centres undefined), the pEC50 on Estrogen receptor beta was 9.44; at Estrogen receptor [1], 6.94.

For `N#CCC1(Cc2ccc(O)cc2)CCc2cc(O)ccc21` (centres undefined), the pEC50 on Estrogen receptor beta is 8.52. As for `CCCC1(Cc2ccc(O)cc2)CCc2cc(O)ccc21` (centres undefined), the pEC50 on Estrogen receptor [1] is 6.77. At Estrogen receptor beta, `CCCCC1(Cc2ccc(O)cc2)CCc2cc(O)ccc21` (centres undefined) gave a pEC50 of 8.18. Further, the Activity on Estrogen receptor [2] is 42%. On Estrogen receptor beta, `Oc1ccc(CC2CCc3c(O)cccc32)cc1` (centres undefined) showed a pEC50 of 7.14.

As to `N#CC1(Cc2ccc(O)cc2F)CCc2cc(O)ccc21` (centres undefined), the values for the pEC50 at Estrogen receptor beta and at Estrogen receptor [1] were 9.82 and 6.59, respectively. For `N#C[C@@]1(Cc2ccc(O)cc2)CCc2cc(O)ccc21`, at Estrogen receptor [1], the pEC50 is 5.62. On to `N#CC1(Cc2ccc(O)c(F)c2)CCc2cc(O)ccc21` (centres undefined), for which the pEC50 at Estrogen receptor beta is 9.04; on Estrogen receptor [1], 5.74.

For the compound `CC1(Cc2ccc(O)cc2)CCc2cc(O)ccc21` (centres undefined), the pEC50 at Estrogen receptor [1] is 6.32.

As for `Oc1ccc(CC2CCCCc3cc(O)ccc32)cc1` (centres undefined), the pEC50 at Estrogen receptor beta was 9.82; on Estrogen receptor [1] it was 6.91. In turn, `Cc1cc(CC2(C#N)CCc3cc(O)ccc32)ccc1O` (centres undefined) showed a pEC50 at Estrogen receptor beta of 7.97. Further, on Estrogen receptor [2], the Activity is 2%. Consider `Oc1ccc(CC2CCc3ccc(O)cc32)cc1` (centres undefined), for which the pEC50 at Estrogen receptor beta is 7.59; on Estrogen receptor [1], 5.68.

Regarding `N#C[C@]1(Cc2ccc(O)cc2)CCc2cc(O)ccc21`, the pEC50 on Estrogen receptor [1] was 5.52.

The compound `N#CC1(Cc2ccc(O)c(Cl)c2)CCc2cc(O)ccc21` (centres undefined) gave a pEC50 at Estrogen receptor beta of 7.94. The Activity at Estrogen receptor [2] is given as 7%. Turning to `Oc1ccc(CCc2ccc(O)cc2)cc1`, the Activity at Estrogen receptor [2] is listed as 47%. The compound `N#CC1(Cc2ccc(O)cc2)CCc2cc(O)ccc21` (racemic) showed a pEC50 on Estrogen receptor [1] of 5.55. Turning to `CCC(Cc1ccc(O)cc1)c1ccc(O)cc1` (centres undefined) [ISOBUTESROL], the pEC50 at Estrogen receptor beta is 9.64; on Estrogen receptor [1] it was 6.73.
